In the supplement of paper PMC10331698:
± gives the standard deviation of the averaged measurements.

Experiments:
Experiment in all cases: level (log10 ratio to DMSO vehicle control); higher = higher biomarker level / cell amount than vehicle control
Settings in all cases: in DMSO
[1] = compound: FC(F)(F)C(F)(F)C(F)(F)C(F)(F)C(F)(F)C(F)(F)C(F)(F)CCI [1-Iodo-1H,1H,2H,2H-perfluorononane]
Method: (§1)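 BioMAP Diversity Plus panel of 12 human primary cell co-culture systems (3C, 4H, LPS, SAg, BT, BF4T, BE3C, CASM3C, HDF3CGF, KF3CT, MyoF, Mphg). Compounds were added 1 h before stimulation and left for 24 h (MyoF 48 h; BT 72 h for soluble read-outs or 6 d for IgG). Biomarkers were read by ELISA, cytotoxicity by SRB, PBMC viability and proliferation by Alamar Blue. Each well value was divided by the mean of 8 DMSO control wells on the same plate and log10 transformed; duplicate blinded samples were tested at 4 concentrations.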

[2] = compound: O=S(=O)(O)C(F)(F)C(F)(F)C(F)(F)C(F)(F)C(F)(F)C(F)(F)C(F)(F)C(F)(F)F [Potassium perfluorooctanesulfonate]
Method: as §1

[3] = compound: O=S(=O)(O)C(F)(F)C(F)(F)C(F)(F)C(F)(F)F [Perfluorobutanesulfonic acid]
Method: as §1

[4] = compound: O=P(O)(O)CCC(F)(F)C(F)(F)C(F)(F)C(F)(F)C(F)(F)C(F)(F)C(F)(F)C(F)(F)F [((Perfluorooctyl)ethyl)phosphonic acid]
Method: as §1

[5] = compound: O=C(O)C(F)(F)C(F)(F)C(F)(F)C(=O)O [Hexafluoroglutaric acid]
Method: as §1

[6] = compound: O=C(O)C(F)(F)C(F)(F)C(F)(F)C(F)(F)C(F)(F)F [Perfluorohexanoic acid]
Method: as §1

[7] = compound: O=S(=O)(O)C(F)(F)C(F)(F)C(F)(F)C(F)(F)C(F)(F)C(F)(F)C(F)(F)C(F)(F)F [Perfluorooctanesulfonic acid]
Method: as §1

Row | Test System | level (log10) ([1]; 6700 nM) | level (log10) ([1]; 20000 nM) | level (log10) ([2]; 6700 nM) | level (log10) ([2]; 20000 nM) | level (log10) ([2]; 60000 nM) | level (log10) ([3]; 6700 nM) | level (log10) ([3]; 20000 nM) | level (log10) ([3]; 60000 nM) | level (log10) ([4]; 6700 nM) | level (log10) ([4]; 20000 nM) | level (log10) ([4]; 60000 nM) | level (log10) ([5]; 6700 nM) | level (log10) ([5]; 20000 nM) | level (log10) ([5]; 60000 nM) | level (log10) ([6]; 6700 nM) | level (log10) ([6]; 20000 nM) | level (log10) ([6]; 60000 nM) | level (log10) ([7]; 6700 nM) | level (log10) ([7]; 20000 nM) | level (log10) ([7]; 60000 nM)
1 | lMphg:CCL3/MIP-1alpha | -0.001 | 0.045 ± 0.033 | -0.0105 ± 0.0035 | -0.0255 ± 0.0092 | -0.016 ± 0.02 | -0.0305 ± 0.016 | -0.0395 ± 0.005 | -0.0135 ± 0.0092 | -0.0425 ± 0.026 | -0.0475 ± 0.0021 | -0.039 ± 0.0085 | -0.0025 ± 0.0078 | 0.0125 ± 0.015 | -0.024 ± 0.052 | 0.006 | -0.009 ± 0.011 | 0.0025 ± 0.011 | -0.0225 ± 0.011 | -0.007 | -0.0035 ± 0.0078
2 | lMphg:CD40 | -0.0065 ± 0.00071 | -0.0225 ± 0.028 | -0.0245 ± 0.0035 | -0.0125 ± 0.0092 | 0.002 ± 0.017 | -0.0015 ± 0.0064 | -0.0065 ± 0.0021 | 0.009 ± 0.0014 | -0.015 ± 0.017 | -0.065 ± 0.017 | -0.037 ± 0.021 | -0.0015 ± 0.012 | -0.013 ± 0.0014 | -0.066 ± 0.061 | 0.0105 ± 0.0078 | 0.016 ± 0.02 | -0.008 ± 0.0028 | -0.027 ± 0.013 | -0.0025 ± 0.005 | 0.02 ± 0.0014
3 | lMphg:CD62E/E-Selectin | 0.016 ± 0.02 | 0.001 ± 0.0099 | 0.0145 ± 0.0092 | 0.052 ± 0.023 | 0.204 | 0.0405 ± 0.0035 | 0.041 ± 0.044 | 0.0215 ± 0.046 | 0.011 ± 0.0014 | 0.027 ± 0.0085 | 0.113 ± 0.018 | -0.0065 ± 0.026 | 0.001 ± 0.02 | -0.0165 ± 0.043 | 0.0025 ± 0.016 | 0 ± 0.0014 | -0.014 ± 0.0042 | -0.0015 ± 0.023 | 0.0385 ± 0.013 | 0.186 ± 0.029
4 | lMphg:CD69 | -0.0025 ± 0.023 | -0.053 ± 0.076 | -0.04 ± 0.0028 | -0.052 ± 0.02 | -0.074 ± 0.04 | 0.0035 ± 0.005 | -0.0195 ± 0.005 | -0.0525 ± 0.043 | -0.0125 ± 0.013 | -0.0425 ± 0.04 | 0.0275 ± 0.043 | -0.037 ± 0.028 | -0.0325 ± 0.0021 | -0.0525 ± 0.015 | 0.005 ± 0.035 | -0.003 ± 0.0071 | -0.017 ± 0.0042 | -0.046 | -0.0585 ± 0.029 | -0.102 ± 0.091
5 | lMphg:CD106/VCAM-1 | -0.009 ± 0.04 | -0.039 ± 0.075 | -0.012 ± 0.018 | 0.0015 ± 0.005 | -0.038 ± 0.017 | -0.004 ± 0.025 | -0.013 ± 0.018 | -0.0195 ± 0.0078 | -0.013 ± 0.016 | -0.0455 ± 0.018 | -0.055 ± 0.0014 | 0.0045 ± 0.011 | -0.005 ± 0.0057 | -0.0255 ± 0.00071 | 0.0065 ± 0.016 | -0.0055 ± 0.011 | 0.0005 ± 0.018 | -0.009 ± 0.0099 | -0.005 ± 0.013 | -0.058 ± 0.04
6 | lMphg:CXCL8/IL-8 | 0.007 ± 0.013 | 0.0695 ± 0.0078 | -0.0435 ± 0.005 | 0.0135 ± 0.03 | 0.094 ± 0.0028 | 0.022 ± 0.0028 | 0.06 ± 0.0085 | 0.183 ± 0.0099 | -0.0105 ± 0.025 | 0.0115 ± 0.028 | 0.148 ± 0.084 | 0.014 ± 0.0042 | 0.044 ± 0.072 | -0.0185 ± 0.0021 | 0.045 ± 0.024 | 0.0515 ± 0.036 | 0.074 ± 0.023 | -0.0385 ± 0.018 | -0.003 ± 0.025 | 0.0585 ± 0.1
7 | lMphg:IL-1alpha | -0.012 ± 0.014 | 0.055 ± 0.045 | -0.003 ± 0.028 | 0.0235 ± 0.015 | 0.0125 ± 0.012 | 0.0315 ± 0.016 | -0.0055 ± 0.056 | 0.034 ± 0.031 | -0.014 ± 0.0099 | -0.0245 ± 0.025 | 0.02 ± 0.0042 | -0.004 ± 0.0057 | -0.0095 ± 0.023 | -0.022 ± 0.031 | 0.0035 ± 0.04 | 0 ± 0.011 | -0.009 ± 0.033 | 0.0015 ± 0.022 | 0.0075 ± 0.013 | 0.017 ± 0.0085
8 | lMphg:M-CSF | -0.023 ± 0.037 | -0.015 ± 0.0014 | -0.0005 ± 0.005 | -0.004 ± 0.0057 | 0.035 ± 0.016 | 0.021 ± 0.028 | -0.0045 ± 0.074 | -0.0045 ± 0.07 | -0.0235 ± 0.0064 | -0.039 ± 0.0057 | -0.0405 ± 0.0078 | -0.028 ± 0.014 | -0.017 ± 0.0042 | -0.0175 ± 0.019 | 0.0005 ± 0.028 | -0.011 ± 0.028 | -0.023 ± 0.0014 | -0.003 ± 0.013 | -0.008 ± 0.0085 | 0.03 ± 0.0042
9 | lMphg:SRB | -0.002 ± 0.0071 | 0.0065 ± 0.005 | -0.0065 ± 0.015 | -0.01 ± 0.0071 | -0.015 ± 0.011 | 0.002 ± 0.013 | -0.0155 ± 0.011 | -0.0155 ± 0.0064 | 0 ± 0.0071 | -0.0105 ± 0.0078 | -0.044 ± 0.0085 | 0.0035 ± 0.00071 | 0.003 ± 0.0085 | -0.0045 ± 0.0035 | -0.019 ± 0.0085 | -0.0175 ± 0.0064 | -0.006 ± 0.0085 | -0.002 ± 0.014 | -0.004 ± 0.018 | 0.009 ± 0.02
10 | lMphg:SRB-Mphg | 0.001 ± 0.03 | 0.001 ± 0.011 | 0.0005 ± 0.005 | 0.0005 ± 0.011 | 0.0115 ± 0.005 | 0.01 ± 0.018 | 0.0045 ± 0.015 | -0.0005 ± 0.012 | 0.0005 ± 0.015 | -0.0055 ± 0.00071 | -0.0515 ± 0.022 | -0.0075 ± 0.019 | -0.0055 ± 0.005 | 0.0075 ± 0.022 | -0.0005 ± 0.011 | 0.003 ± 0.0071 | 0.0115 ± 0.0035 | -0.0005 ± 0.021 | 0.007 ± 0.0071 | 0.0055 ± 0.0035
11 | lMphg:sIL-10 | -0.0685 ± 0.00071 | -0.072 ± 0.021 | 0.015 ± 0.0014 | -0.0445 ± 0.0092 | -0.647 ± 0.025 | 0.043 ± 0.099 | -0.0475 ± 0.032 | 0.0065 ± 0.049 | -0.0215 ± 0.012 | -0.062 ± 0.017 | -0.263 ± 0.025 | -0.0745 ± 0.037 | -0.0775 ± 0.056 | -0.102 ± 0.0078 | -0.0285 ± 0.0092 | -0.0375 ± 0.046 | -0.0945 ± 0.021 | -0.033 ± 0.076 | -0.0295 ± 0.012 | -0.727 ± 0.099
